Structures can show the parent of a compound that is named as a salt. Where two headings read alike, the source gives them in different places.
Columns and labels:
[1] = tested on: SRS-A production; test: suppressing action upon production of SRS-A (lung pieces of actively sensitized guinea pigs, EWA challenge); type: cell-based, guinea pig; conditions: for inhibition at 8.3 µg/mL: 8.3 μg/ml; for suppression of the production of SRS-A (in words): Table 4, 8.3 μg/ml
Protocol: An inhibiting action of 2-n-heptyl-4-hydroxyquinoline-N-oxide upon SRS-A production was determined according to the following procedure:
According to Watanabe-Kohno and Parker procedure (J. Immunol., 125, 946 (1980)), 20 mg of egg white albumin (hereinafter abbreviated as EWA), was dissolved in 10 ml of physiological saline solution, and the resulting solution was added to an equal volume of Freund's complete adjuvant to prepare an emulsion. Then, 1 ml of the emulsion was administered subcutaneously in the plantar surface of the hind paws of guinea pigs to make the animals actively sensitized. Three to five weeks thereafter, the guinea pigs were sacrified by exsanguination from the carotid artery, and the Tyrode's solution was perfused through right cardiac ventricle to wash lungs and remove blood. Then, the lungs were isolated and cut to pieces of about 2 mm size in the chilled Tyrode's solution with scissors, filtered through 2 sheets of gauze. Then, 400 mg of the fragments were distributed into individual test tubes containing 5 ml of the Tyrode's solution. The lung pieces were preincubated at 37° C. for 10 minutes, 0.5 ml of a test solution at various concentrations was added thereto, and the incubation was continued for 10 minutes at 37° C. Then, 0.5 ml of EWA (20 mg/ml) was added thereto, and the mixture was further incubated for 15 minutes. The reaction was discontinued by ice-cooling the mixture, and then the mixture was filtered through a sheet of gauze.
(§1) The amount of SRS-A in the filtrate was bioassayed using guinea pig ileum according to the Magnus procedure. That is, the ileums were suspended in 10 ml of organ bath filled with the Tyrode's solution (31 ±1° C., aerated with 95% O2 +5% CO2 gas mixture), and their movements were recorded on a recorder with a pen (Hitachi: QPD54) through an isotonic transducer (Nihon Koden: JD112S). After the ileum contraction reaction by 10^-7 M histamine was stabilized, 1 ml of the filtrate was added to the organ bath in the presence of 5 x 10^-7 M atropine and 10^-6 M tripelennamine to cause the ileum contraction reaction. It was known that the ileum contraction reaction by SRS-A was increased by repetitive applications and, therefore, after the reaction by at least 5 applications of the SRS-A prepared in advance became constant, control filtrate and a filtrate containing a test solution were used.
Suppressing actions of 2-n-propyl-4-hydroxyquinoline-N-oxide and 2-n-undecyl-4-hydroxyquinoline-N-oxide upon production of SRS-A were determined in the same manner as in Test Example 3.

[2] = target: T1, 12-lipoxygenase (Bos taurus, UniProt F1MFA8); test: inhibiting action upon blood platelet 12-lipoxygenase; type: biochemical, bovine; conditions: for inhibition at 1000 µM: pH 7.4, with 1,000 μM of each compound, read-out: 12-lipoxygenase, inhibiting ratio
T1 construct: a preparation prepared from bovine blood platelets was used as an enzyme source; from tissue; host or cells: bovine blood platelets
T1 sequence (F1MFA8 1-663): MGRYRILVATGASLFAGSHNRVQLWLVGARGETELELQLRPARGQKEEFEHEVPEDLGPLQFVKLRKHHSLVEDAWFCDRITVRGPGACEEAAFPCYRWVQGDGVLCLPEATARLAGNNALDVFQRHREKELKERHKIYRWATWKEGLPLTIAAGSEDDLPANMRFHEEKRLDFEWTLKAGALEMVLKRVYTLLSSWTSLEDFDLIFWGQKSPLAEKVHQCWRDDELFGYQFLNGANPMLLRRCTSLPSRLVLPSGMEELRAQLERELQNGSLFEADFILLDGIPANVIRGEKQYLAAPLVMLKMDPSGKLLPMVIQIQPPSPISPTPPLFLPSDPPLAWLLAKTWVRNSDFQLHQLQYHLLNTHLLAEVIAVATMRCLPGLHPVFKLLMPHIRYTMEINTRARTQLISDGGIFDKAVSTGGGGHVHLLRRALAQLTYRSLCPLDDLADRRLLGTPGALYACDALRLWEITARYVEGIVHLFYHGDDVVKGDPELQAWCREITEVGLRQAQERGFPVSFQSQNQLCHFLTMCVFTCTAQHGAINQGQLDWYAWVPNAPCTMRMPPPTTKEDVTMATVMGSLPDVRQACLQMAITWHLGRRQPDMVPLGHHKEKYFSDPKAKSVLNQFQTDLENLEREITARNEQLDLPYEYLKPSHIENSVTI
Protocol: (§2) An inhibiting action of 2-n-heptyl-4-hydroxyquinoline-N-oxide upon lipoxygenase was determined by in vitro test according to the following procesure:
(a) Procedure for determining the inhibiting action upon blood platelet 12-lipoxygenase:
Determination was carried out according to D. H. Nugtern, et al, procedure (Biochem. Biophys. Acta, 380, 299 (1975)). That is, a preparation prepared from bovine blood platelets was used as an enzyme source. The blood platelet lipoxygenase preparation and 2-n-heptyl-4-hydroxyguinoline-N-oxide were brought into contact with each other in a 0.01M tris hydrochloric acid buffer solution (pH 7.4) at 30° C. for 5 minutes in advance, and then 35 μM of [^14 C]arachidonic acid was added thereto. The mixture was incubated at 30° C. for 10 minutes. The reaction product was extracted with ethyl acetate/methanol/0.2M citric acid (30/4/1), and then separated by thin layer chromatography (developing solvent system: ligroin/ethyl ether/acetic acid: (50/50/1). The spot of 12-hydroxy-5,8,10,14-eicosatetraenoic acid in the product was scraped off and ^14 C was measured by a liquid scintillation counter.
(§3) Inhibiting actions of compounds in Table 2 upon lipoxygenase were determined in the same manner as in Test Example 1.

[3] = target: T2, 5-lipoxygenase (Rattus norvegicus, UniProt P12527); test: inhibiting action upon leukocyte 5-lipoxygenase (RBL-1 cells as enzyme source); type: biochemical
T2 construct: leukemic basophilic granulocyte cells of rats (RBL-1, ATCC No. CRL 1378) were used as a 5-lipoxygenase enzyme source; host or cells: RBL-1 (rat basophilic leukemia cells)
T2 sequence (P12527 1-673): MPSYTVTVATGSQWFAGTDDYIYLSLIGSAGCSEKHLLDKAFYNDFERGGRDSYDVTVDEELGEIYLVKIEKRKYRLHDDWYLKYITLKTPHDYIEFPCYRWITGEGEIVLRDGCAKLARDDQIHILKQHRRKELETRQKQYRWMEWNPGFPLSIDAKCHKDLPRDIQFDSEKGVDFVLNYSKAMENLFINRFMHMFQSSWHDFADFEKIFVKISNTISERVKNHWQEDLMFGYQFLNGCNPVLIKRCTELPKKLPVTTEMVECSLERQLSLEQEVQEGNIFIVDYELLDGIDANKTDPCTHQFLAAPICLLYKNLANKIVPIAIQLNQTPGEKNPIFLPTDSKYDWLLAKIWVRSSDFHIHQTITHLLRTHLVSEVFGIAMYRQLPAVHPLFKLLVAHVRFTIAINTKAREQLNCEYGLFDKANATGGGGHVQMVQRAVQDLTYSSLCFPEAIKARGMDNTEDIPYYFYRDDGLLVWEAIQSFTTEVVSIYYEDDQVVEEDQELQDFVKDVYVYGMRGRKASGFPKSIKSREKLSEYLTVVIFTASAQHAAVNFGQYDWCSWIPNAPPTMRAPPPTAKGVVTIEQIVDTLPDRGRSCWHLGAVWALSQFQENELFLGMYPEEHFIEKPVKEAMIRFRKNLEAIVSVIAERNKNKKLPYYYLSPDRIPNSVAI
Protocol: as §2
(b) Procedure for determining the inhibiting action upon leukocyte 5-lipoxygenase:
Determination was carried out according to modified B. A. Jakschik, et al, procedure (Biochem. Biophys. Res. Commun. 95, 103 (1980)). That is, leukemic basophilic granulocyte cells of rats (RBL-1, ATCC No. CRL 1378) were used as a 5-lipoxygenase enzyme source. The cells and 2-n-heptyl-4-hydroxyquinoline-N-oxide were brought into contact with each other in a 0.07 M tris hydrochloric acid buffer solution in the presence of 0.7 mM calcium chloride at 37° C. for 5 minutes, and then 20 μM of [^14 C]-arachidonic acid was added thereto. The mixture was incubated at 37° C. for 5 minutes. The reaction product was extracted with ethyl acetate/methanol/0.2M citric acid (30/4/1), and then separated by thin layer chromatography (developing solvent: petroleum ether/ethyl ether/acetic acid: 50/50/1). Spots of 5-hydroxy-[…]-eicosatetraenoic acid in the product were scraped off and ^14 C was measured by a liquid scintillation counter.
as §3

[4] = tested on: SRS-A; test: guinea pig ileum contraction reaction by SRS-A (Magnus procedure); conditions: 3×10^-7 M
Protocol: as §1

[5] = tested on: airway contraction reaction of passively sensitized guinea pigs; test: suppressing action upon anaphylactic airway contraction reaction of passively sensitized guinea pigs; type: in vivo, guinea pig; conditions: 10 mg/kg P.O. one hour before antigen EWA (1 mg/kg); 6 guinea pigs vs 18 control
Protocol: Suppressing action of 2-n-heptyl-4-hydroxyquinoline-N-oxide upon the airway contraction reaction of passively sensitized guinea pigs was determined according to the following procedure:
Anaphylactic airway contraction reaction of passively sensitized guinea pigs by antigen administration was determined according to modified Konzett and Rossler procedure (Arch. exp. Path. Pharmakol., 195, 71 (1940)). Anti-EWA guinea pig serum (1 ml/animal) was intraperitoneally administered into normal guinea pigs to make the animals passively sensitized, and 24 hours thereafter, a tracheal cannule was inserted and fixed to the guinea pig under urethane anesthesia. An artificial respirator and a bronchospasm transducer were connected to the cannule. After the spontaneous respiration was stopped by intravenous injection of 10 mg/kg of gallamine triethiodide, 1 mg/kg of EWA was injected into the jugular vein to cause anaphylactic airway contraction, and the volume of air overflow from the tracheal cannule sideway was recorded on a polygraph through the transducer. After the end of measurement, the trachea was completely blockaded. The state of complete blockade was regarded as a maximum contraction, and the results were given in percentage to the maximum contraction.

[6] = Cavia porcellus, read-out: Suppressing ratio, production of SRS-A
[7] = Table 2, same manner as Test Example 1

CCCc1cc(O)c2ccccc2[n+]1[O-] [2-n-propyl-4-hydroxyquinoline-N-oxide]
inhibition at 8.3 µg/mL [1, 6]: 34.1%
suppression of the production of SRS-A (in words) [1]: suppress the production of SRS-A
inhibition at 1000 µM ([2]; 10 min): 46.3%
IC50 [3, 7]: 110 µM

CCCc1c(OCC(O)COc2ccc3c(=O)cc(C(=O)O)oc3c2CCC)ccc(C(C)=O)c1O (centres unmarked) [FPL-55712]
suppression of ileum contraction reaction by SRS-A [4]: almost completely suppressed

CCCCCCCCCCCc1cc(O)c2ccccc2[n+]1[O-] [2-n-undecyl-4-hydroxyquinoline-N-oxide]
inhibition at 8.3 µg/mL [1, 6]: 17.5%
suppression of the production of SRS-A (in words) [1]: suppress the production of SRS-A
inhibition at 1000 µM ([2]; 10 min): 55.7%
IC50 [3, 7]: 0.2 µM

CCCCCCCc1cc(O)c2ccccc2[n+]1[O-] [2-n-heptyl-4-hydroxyquinoline-N-oxide]
formation of SRS-A (in words) ([1]; 4, 40, and 400 μg/ml): suppressed by application of 4, 40, and 400 μg/ml of the present compound in a dose dependent manner
inhibition at 4 µg/mL [1, 6]: 26.2 ± 4.2%
inhibition at 40 µg/mL [1, 6]: 60.1 ± 3.7%
inhibition at 400 µg/mL [1, 6]: 84.3 ± 1.1%
intensity of SRS-A suppression compared with BW-755C ([1]; in words, measured at the same time): obviously better than the suppressing action of BW-755C
suppression of airway contraction reaction (increase in air overflow) [5]: significantly suppressed
IC50 [2]: 30 µM
inhibiting action upon 12-lipoxygenase compared with BW-755C ([2]; in words): almost equal to that of known compound
IC50 [3]: 0.15 µM
inhibiting action upon 5-lipoxygenase compared with BW-755C ([3]; in words): much better in the present compound

NC1=NN(c2cccc(C(F)(F)F)c2)CC1 [BW-755C, 3-amino-1-(3-trifluoromethylphenyl)-2-pyrazoline hydrochloride, reference compound]
inhibition at 40 µg/mL ([1]; Cavia porcellus, 40 μg/ml, read-out: Suppressing ratio, production of SRS-A): 23.8 ± 8.8%
IC50 ([2]; bovine blood platelet preparation, 35 μM [14C]arachidonic acid, pH 7.4, 30° C., 10 min, read-out: IC50, 12-lipoxygenase): 25 µM

CCCCCCCCCCCCCCCc1cc(O)c2ccccc2[n+]1[O-] [2-n-pentadecyl-4-hydro-xy-quinoline-N--oxide]
inhibition at 1000 µM ([2]; 10 min): 56%
IC50 [3, 7]: 1 µM

Source: patent US4618613A, “Preventive and healing composition for diseases due to lipoxygenase metabolic products” (Kyowa Hakko Kogyo Company, Ltd., priority 1983, dated 1986)
